What is called MIC is the lowest concentration found to suppress growth.

Holding throughout (assay type): functional
The test system of test [1] is Pyricularia grisea. Kind of test: Fungicidal activity against Magnaporthe grisea in rice plant assessed as prevention from rice blast disease measured as lesions under greenhouse at 12.5 ppm for 8 days by foliar spray compound treated before inoculation.
The test system of test [2] is Pyricularia grisea. The experiment in a line: Fungicidal activity against Magnaporthe grisea in rice plant assessed as prevention from rice blast disease measured as lesions under greenhouse at 50 ppm for 8 days by soil drench compound treated before inoculation.
In test [3] the test system is Pyricularia grisea. Kind of test: Fungicidal activity against Magnaporthe grisea in rice plant assessed as prevention from rice blast disease measured as lesions under greenhouse at 3.1 ppm for 8 days by foliar spray compound treated before inoculation.
The subject of test [4] is Pyricularia grisea. The experiment in a line: Fungicidal activity against Magnaporthe grisea in rice plant assessed as prevention from rice blast disease measured as lesions under greenhouse at 12.5 ppm for 8 days by soil drench compound treated before inoculation.
For test [5], the system named is Pyricularia grisea. Kind of test: Fungicidal activity against Magnaporthe grisea in rice plant assessed as rice blast disease measured as damage under greenhouse by foliar spray for 8 days compound treated before inoculation. Particulars: 192 h.
In test [6] the test system is Pyricularia grisea. The experiment in a line: Fungicidal activity against Magnaporthe grisea in rice plant assessed as rice blast disease measured as damage under greenhouse at 25 ppm for 8 days by foliar spray compound treated before inoculation.
In test [7] the test system is Pyricularia grisea. The experiment in a line: Fungicidal activity against Magnaporthe grisea in rice plant assessed as rice blast disease measured as damage under greenhouse at 6.3 ppm for 8 days by foliar spray compound treated before inoculation.
In test [8] the test system is Pyricularia grisea. The experiment in a line: Fungicidal activity against Magnaporthe grisea in rice plant assessed as rice blast disease measured as damage under greenhouse at 1.6 ppm for 8 days by foliar spray compound treated before inoculation.
Test [9] concerns Pyricularia grisea. Kind of test: Fungicidal activity against Magnaporthe grisea in rice plant assessed as rice blast disease measured as damage under greenhouse at 0.4 ppm for 8 days by foliar spray compound treated before inoculation.

Turning to `C=CC(C)(C)C(C#N)C(=O)NC(C)c1ccc(Cl)cc1Cl` (configuration not stated), the Activity entry in [1] and in test [2] was “<=10%” each time.

Consider `C=CC(C)(C)C(C#N)C(=O)NC(C)c1ccc(Cl)cc1F` (configuration not stated), for which the Activity entry in test [3] and in [4] was “<=10%” each time.

With `CC(NC(=O)C(C#N)C(C)(C)C)c1ccc(Br)cc1` (configuration not stated), the Activity result in test [3] and in test [4] was “<=10%” throughout.

With `C#CC(C)(C)C(C#N)C(=O)NC(C)c1ccc(Cl)cc1` (configuration not stated), the Activity result in [3] and in test [4] was “<=10%” in each case.

For `C=CC(C)(C)C(C#N)C(=O)NC(C)c1ccc(Cl)cc1` (configuration not stated), the Activity result in [3] and in test [4] was “<=10%” throughout.

For `CC(NC(=O)C(C#N)C(C)(C)C)c1ccc(Cl)cc1` (configuration not stated), the Activity result in test [3] and in test [4] was “<=10%” in each case.

With `C[C@@H](NC(=O)C(C#N)C(C)(C)C)c1ccc(Cl)cc1Cl` (mixture of isomers) [DICLOCYMET], the minimal inhibitory concentration (MIC) in [5] came out at 0.08 µg/mL. Moreover, the Activity in test [6] worked out at 4%; in test [7], 4%; in test [8], 3%; in [9] it was 2%.

The values above are taken from ChEMBL document CHEMBL3045432, “Synthesis and Fungicidal Activity of -Cyanoacetamide Derivatives: Discovery of a New Rice Blast Fungicide, Diclocymet (S-2900)” (2002).
